Laboratory results: patent publication US5439930A, “Biologically active n-acylprolydipeptides having antiamnestic, antihypoxic and anorexigenic effects” (Russian-American Institute for New Drug Development, priority 1992, dated 1995)
Where a SMILES comes first, the peptide text is derived from it. The star is where a group is joined. PhAc = O=C(Cc1ccccc1)*

Assays:
[1] = Body weight and food consumption; type: in vivo, rats
Method: The influence of Compound I on body weight and food consumption was studied in the experiments on the outbred rats. The substance, administered during 3 weeks in dose of 0.1 mg/kg/day intraperitoneally slowed the dynamics of weight increase in comparison to control: the increase of the weight (in %% to the initial one) was 12% in the treated group and 24% in the control group.
The amount of the consumed chow checked between 19th and 21st days was less for treated animals (39.5 g/day/rat) than for control ones (68.6 g/day/rat).

[2] = tested on: rat's offspring after prenatal alcoholization; assay: Open field locomotor activity and habituation of offspring after prenatal alcoholization; type: in vivo, rats
Method: The cognitive impairment in the rat's offspring was provoked by prenatal alcoholization or prenatal hypoxia. Prenatal alcoholization was achieved by peroral administration of 5 g/kg/day (25% solution) ethanol to pregnant female rats during whole pregnancy. To achieve prenatal hypoxia the rats on the 15th day of pregnancy were placed into hypobaric barometric chamber (the "elevating" up 8500 m altitude; exposition for 2 hours).
The treatment of the offspring was performed from 8th day to 20th day. Compound I was administered in the dose of 0.1 mg/kg/day subcutaneously. The testing was performed on two-month old rats.
Chronic postnatal administration of Compound I restored the normal course of the habituation (Table 10).

[3] = tested on: undertraining of the passive avoidance reflex, rats; assay: Passive avoidance with undertraining, different regimes of administration; type: in vivo; settings: 0.5 mg/kg i.p.
[4] = tested on: lobectomized rats; assay: Passive avoidance after frontal lobectomy; type: in vivo; settings: 9th day, 0.1 mg/kg for 9 days
Method: (§1) The impairment of learning and memory was achieved also by frontal lobectomy, which was performed after passive avoidance or active avoidance learning. Compound I (0.1 mg/kg) was administered beginning from the first post-operational day and lasting for 9 days. The testing was performed at 4th and 9th days. […] The frontal lobectomy has as a consequence the decrease of the latency of the entering of the dark compartment; Compound I restored the passive avoidance reaction (Table 8).

[5] = tested on: phenazepam withdrawn male albino rats; assay: Conflict situation test during phenazepam withdrawal; type: in vivo; settings: 0.5 mg/kg i.p. 15 minutes prior to testing; 24 hours after phenazepam withdrawal
Method: (§2) The influence of Compound I on withdrawal syndrome caused by the interruption of chronic administration of benzodiazepine tranquilizer phenazepam (T. A. Voronina et al., In Fenazepam; A. V. Bogatsky, Ed.; Naukova dumka Publishers: Kiev, 1982; pp. 67-169) was studied in experiments on male albino rats weighing 190-200 g at the beginning and 300-350 g at the end of the experiment.
(§3) Phenazepam (2 mg/kg intraperitoneally) or saline (control group of rats) were given once daily for 57 days. The withdrawal syndrome occurred 24-72 hours after the last injection. The withdrawal syndrome in rats consisted in "anxiogenic-like" state aggressiveness and accelerated development of kindled seizures caused by pentylentetrazol. Compound I was administered to the withdrawn rats in doses of 0.5 mg/kg intraperitoneally 15 minutes prior to testing.
The conflict situation test was used to reveal the "anxiety" of rats (J. R. Vogel et al., Psychopharmacologia, 21, 1-7 (1971)). This experiment involved previous training of water deprivated rats to drink water from a trough. Next day electrical stimulation was given by a 0.5 mA electric current through the trough. A conflict situation was created by clashing of the two different reflexes (drinking and self-defense).
This behavior in the conflict situation test can be considered as "anxiogenic-like" one. […]

[6] = tested on: lobectomized rats; assay: Active avoidance after frontal lobectomy; type: in vivo; settings: 0.1 mg/kg daily
Method: as §1
Compound I increased the percentage of the animals performing the active avoidance reaction and the coefficient of the preserving (Table 8).

[7] = tested on: phenazepam withdrawn male albino rats; assay: Pentylenetetrazol kindling seizures during phenazepam withdrawal; type: in vivo
Method: as §2, §3
The seizure reactions of rats were studied using chemical kindling (C.R. Mason et al., Epilepsia, 13, 663-674 (1972); R. M. Post et al., Handbook of Biological Psychiatry, Part IV, No. 7, Marcel-Dekker (1981) pp. 609-651) produced by small doses of pentylene-tetrazol (35 mg/kg, intraperitoneally) administrated 24, 48 and 72 h after phenazepam withdrawal. The degree of seizures was evaluated by 4 points: tremor (1 point); jerk (2 point); clonic seizures (3 points); tonic seizures and death (4 points).
Our experiments pointed out that the pentylenetetrazol seizures were more pronounced in phenazepam withdrawn rats than in the control one. Compound I diminished the degree of kindling provoked by pentylenetetrazol (Table 14).

[8] = tested on: damaged stable active avoidance reaction, rats; assay: Conditional active avoidance reflex after damage (simultaneous sound and footshock); type: in vivo
Source text: The influence of Compound I on the active avoidance learning was studied in shuttle-box test (Ugo Basile, Italy). The conditioned reflex of active avoidance had been developed for 5 days with 50 daily trials for each rat. The learning task consisted in the rats' avoiding of the electric shock applied through the cage floor directly after sound. Rats could avoid the shock by moving into another compartment of the cage, but only while the sound was present (3 sec.).
In other experiments, stable active avoidance reaction was damaged by simultaneously switching of sound and electrical footshock for 5 trials. Compound I prevented the impairment of avoidance (Table 6).

[9] = tested on: phenazepam withdrawn male albino rats; assay: Threshold of aggressive behavior during phenazepam withdrawal; type: in vivo; settings: 0.5 mg/kg i.p.; 24 hours after the last administration of phenazepam
Method: as §2, §3
The threshold of the aggressive behavior was determined in the experiment on the rats (R. Tedeshi et al., J. Pharmacol. Exp. Ther., 125, 28-34 (1959)). The paired rats were placed on the electrified floor; the strength of the current, which provokes the fighting, was registered.

CCOC(=O)CNC(=O)[C@@H]1CCCN1C(=O)Cc1ccccc1 [Compound I, N-phenacetyl-L-prolylglycine ethyl ester] (PhAc-Pro-Gly-OEt)
Increase of the weight (in %% to the initial one) ([1]; 0.1 mg/kg/day i.p. during 3 weeks): 12%
Amount of the consumed chow ([1]; between 19th and 21st days, 0.1 mg/kg/day i.p.): 39.5 g/day/rat
Number of horizontal movements ([2]; day 1 of observation, chronic postnatal administration): 8.2
Number of horizontal movements ([2]; day 5 of observation): 3.7
Coefficient of Habituation ([2]; open field): 0.45
Mnestic activity (Ma), administration 15 min. before retrieval [3]: 32%
Mnestic activity (Ma), administration 15 min. before trial [3]: 23%
Mnestic activity (Ma), administration immediately after trial [3]: 14.0%
Passive avoidance test (latency, sec) [4]: 141.2 s
The amount of the Punishment Response [5]: 48.40 ± 12.39
%% of avoiding rats ([6]; 4th day): 42.8%
Active avoidance test - coeff. of preserving ([6]; 4th day): 28.1%
%% of avoiding rats ([6]; 9th day): 57.1%
Active avoidance test - coeff. of preserving ([6]; 9th day): 38.1%
Seizure Reactions in Points (M ± m) ([7]; 24 h after phenazepam withdrawal, pentylenetetrazol 35 mg/kg i.p., 0.5 mg/kg i.p.): 0.25 ± 0.12 points
Seizure Reactions in Points (M ± m) ([7]; 48 h after phenazepam withdrawal): 0.87 ± 0.1 points
Seizure Reactions in Points (M ± m) ([7]; 72 h after phenazepam withdrawal): 0.5 ± 0.24 points
Percentage of avoidances during 5 trials ([8]; after damage, 1-5th trials): 86.7
Percentage of avoidances during 5 trials ([8]; after damage, 6-10th trials): 88.9 ± 4.8
Percentage of avoidances during 5 trials ([8]; after damage, 11-15th trials): 97.8
Percentage of avoidances during 5 trials ([8]; before damage): 88.9 ± 4.8
Aggression Threshold (mA) [9]: 0.92 ± 0.1 mA
